Numbers after ± are expanded uncertainties.
Experiment: xn = mol fraction of the nth substance listed
Conditions: 101 kPa, Liquid; for viscosity: Falling or rolling sphere viscometry; for mass density: Vibrating tube method; for electrical conductivity: Alternating current cell with electrodes, x2 = 0.1402

SMILES: CCCC#N [butanenitrile] + CCCC[N+]1(C)CCCC1.O=S(=O)([N-]S(=O)(=O)C(F)(F)F)C(F)(F)F
- viscosity (293.15 K, x2 = 0): 0.88 ± 0.05 mPa·s
- viscosity (293.15 K, x2 = 0.1009): 1.51 ± 0.09 mPa·s
- viscosity (293.15 K, x2 = 0.1987): 2.73 ± 0.18 mPa·s
- viscosity (293.15 K, x2 = 0.3002): 6.43 ± 0.4 mPa·s
- viscosity (293.15 K, x2 = 0.4): 8.77 ± 0.54 mPa·s
- viscosity (293.15 K, x2 = 0.5012): 14.45 ± 0.89 mPa·s
- viscosity (293.15 K, x2 = 0.6): 22.39 ± 1.4 mPa·s
- viscosity (293.15 K, x2 = 0.7): 33.65 ± 2.1 mPa·s
- viscosity (293.15 K, x2 = 0.8): 49.94 ± 3.1 mPa·s
- viscosity (293.15 K, x2 = 0.9): 73.01 ± 4.5 mPa·s
- mass density (293.15 K, x2 = 0): 791.1 ± 1.6 kg/m3
- mass density (293.15 K, x2 = 0.1003): 965 ± 4 kg/m3
- mass density (293.15 K, x2 = 0.1994): 1078.7 ± 3.2 kg/m3
- mass density (293.15 K, x2 = 0.3001): 1160.1 ± 2.9 kg/m3
- mass density (293.15 K, x2 = 0.4006): 1220.4 ± 2.8 kg/m3
- mass density (293.15 K, x2 = 0.4999): 1267.7 ± 2.8 kg/m3
- mass density (293.15 K, x2 = 0.6): 1304.7 ± 2.8 kg/m3
- mass density (293.15 K, x2 = 0.7): 1335.1 ± 2.8 kg/m3
- mass density (293.15 K, x2 = 0.8): 1360.6 ± 2.8 kg/m3
- mass density (293.15 K, x2 = 0.9007): 1382 ± 2.9 kg/m3
- electrical conductivity (293.2 K): 1.69 ± 0.035 S/m
- viscosity (298.15 K, x2 = 0): 0.86 ± 0.05 mPa·s
- viscosity (298.15 K, x2 = 0.1009): 1.45 ± 0.09 mPa·s
- viscosity (298.15 K, x2 = 0.1987): 2.53 ± 0.16 mPa·s
- viscosity (298.15 K, x2 = 0.3002): 5.72 ± 0.35 mPa·s
- viscosity (298.15 K, x2 = 0.4): 7.81 ± 0.48 mPa·s
- viscosity (298.15 K, x2 = 0.5012): 12.44 ± 0.77 mPa·s
- viscosity (298.15 K, x2 = 0.6): 18.94 ± 1.2 mPa·s
- viscosity (298.15 K, x2 = 0.7): 27.95 ± 1.7 mPa·s
- viscosity (298.15 K, x2 = 0.8): 40.71 ± 2.5 mPa·s
- viscosity (298.15 K, x2 = 0.9): 58.33 ± 3.6 mPa·s
- mass density (298.15 K, x2 = 0): 786.4 ± 1.6 kg/m3
- mass density (298.15 K, x2 = 0.1003): 960.4 ± 4 kg/m3
- mass density (298.15 K, x2 = 0.1994): 1074.3 ± 3.2 kg/m3
- mass density (298.15 K, x2 = 0.3001): 1155.4 ± 2.9 kg/m3
- mass density (298.15 K, x2 = 0.4006): 1216.1 ± 2.8 kg/m3
- mass density (298.15 K, x2 = 0.4999): 1263.2 ± 2.8 kg/m3
- mass density (298.15 K, x2 = 0.6): 1300 ± 2.8 kg/m3
- mass density (298.15 K, x2 = 0.7): 1330.5 ± 2.8 kg/m3
- mass density (298.15 K, x2 = 0.8): 1356 ± 2.8 kg/m3
- mass density (298.15 K, x2 = 0.9007): 1377.5 ± 2.8 kg/m3
- electrical conductivity (299.5 K): 1.85 ± 0.038 S/m
- electrical conductivity (302.7 K): 1.97 ± 0.042 S/m
- viscosity (303.15 K, x2 = 0): 0.84 ± 0.05 mPa·s
- viscosity (303.15 K, x2 = 0.1009): 1.37 ± 0.09 mPa·s
- viscosity (303.15 K, x2 = 0.1987): 2.37 ± 0.15 mPa·s
- viscosity (303.15 K, x2 = 0.3002): 5.13 ± 0.32 mPa·s
- viscosity (303.15 K, x2 = 0.4): 7.14 ± 0.44 mPa·s
- viscosity (303.15 K, x2 = 0.5012): 10.81 ± 0.66 mPa·s
- viscosity (303.15 K, x2 = 0.6): 16.2 ± 1 mPa·s
- viscosity (303.15 K, x2 = 0.7): 23.51 ± 1.4 mPa·s
- viscosity (303.15 K, x2 = 0.8): 33.68 ± 2.1 mPa·s
- viscosity (303.15 K, x2 = 0.9): 47.41 ± 2.9 mPa·s
- mass density (303.15 K, x2 = 0): 781.8 ± 1.6 kg/m3
- mass density (303.15 K, x2 = 0.1003): 955.7 ± 4 kg/m3
- mass density (303.15 K, x2 = 0.1994): 1069.6 ± 3.2 kg/m3
- mass density (303.15 K, x2 = 0.3001): 1150.8 ± 2.9 kg/m3
- mass density (303.15 K, x2 = 0.4006): 1211.4 ± 2.8 kg/m3
- mass density (303.15 K, x2 = 0.4999): 1258.6 ± 2.7 kg/m3
- mass density (303.15 K, x2 = 0.6): 1295.5 ± 2.7 kg/m3
- mass density (303.15 K, x2 = 0.7): 1326 ± 2.8 kg/m3
- mass density (303.15 K, x2 = 0.8): 1351.5 ± 2.8 kg/m3
- mass density (303.15 K, x2 = 0.9007): 1373 ± 2.8 kg/m3
- electrical conductivity (310 K): 2.19 ± 0.046 S/m
- viscosity (313.15 K, x2 = 0): 0.81 ± 0.05 mPa·s
- viscosity (313.15 K, x2 = 0.1009): 1.25 ± 0.08 mPa·s
- viscosity (313.15 K, x2 = 0.1987): 2.07 ± 0.13 mPa·s
- viscosity (313.15 K, x2 = 0.3002): 4.22 ± 0.26 mPa·s
- viscosity (313.15 K, x2 = 0.4): 5.68 ± 0.35 mPa·s
- viscosity (313.15 K, x2 = 0.5012): 8.38 ± 0.51 mPa·s
- viscosity (313.15 K, x2 = 0.6): 12.18 ± 0.75 mPa·s
- viscosity (313.15 K, x2 = 0.7): 17.18 ± 1.1 mPa·s
- viscosity (313.15 K, x2 = 0.8): 23.91 ± 1.5 mPa·s
- viscosity (313.15 K, x2 = 0.9): 32.67 ± 2 mPa·s
- mass density (313.15 K, x2 = 0): 772.4 ± 1.6 kg/m3
- mass density (313.15 K, x2 = 0.1003): 946.2 ± 4 kg/m3
- mass density (313.15 K, x2 = 0.1994): 1060.1 ± 3.2 kg/m3
- mass density (313.15 K, x2 = 0.3001): 1141.4 ± 2.9 kg/m3
- mass density (313.15 K, x2 = 0.4006): 1202.1 ± 2.8 kg/m3
- mass density (313.15 K, x2 = 0.4999): 1249.3 ± 2.7 kg/m3
- mass density (313.15 K, x2 = 0.6): 1286.2 ± 2.7 kg/m3
- mass density (313.15 K, x2 = 0.7): 1316.8 ± 2.8 kg/m3
- mass density (313.15 K, x2 = 0.8): 1342.3 ± 2.8 kg/m3
- mass density (313.15 K, x2 = 0.9007): 1363.8 ± 2.8 kg/m3
- electrical conductivity (313.7 K): 2.3 ± 0.047 S/m
- viscosity (323.15 K, x2 = 0): 0.78 ± 0.05 mPa·s
- viscosity (323.15 K, x2 = 0.1009): 1.17 ± 0.07 mPa·s
- viscosity (323.15 K, x2 = 0.1987): 1.84 ± 0.12 mPa·s
- viscosity (323.15 K, x2 = 0.3002): 3.52 ± 0.22 mPa·s
- viscosity (323.15 K, x2 = 0.4): 4.62 ± 0.28 mPa·s
- viscosity (323.15 K, x2 = 0.5012): 6.67 ± 0.41 mPa·s
- viscosity (323.15 K, x2 = 0.6): 9.47 ± 0.58 mPa·s
- viscosity (323.15 K, x2 = 0.7): 13.04 ± 0.8 mPa·s
- viscosity (323.15 K, x2 = 0.8): 17.69 ± 1.1 mPa·s
- viscosity (323.15 K, x2 = 0.9): 23.59 ± 1.4 mPa·s
- mass density (323.15 K, x2 = 0): 763 ± 1.5 kg/m3
- mass density (323.15 K, x2 = 0.1003): 936.8 ± 3.9 kg/m3
- mass density (323.15 K, x2 = 0.1994): 1050.7 ± 3.2 kg/m3
- mass density (323.15 K, x2 = 0.3001): 1132.1 ± 2.8 kg/m3
- mass density (323.15 K, x2 = 0.4006): 1192.9 ± 2.7 kg/m3
- mass density (323.15 K, x2 = 0.4999): 1240.2 ± 2.7 kg/m3
- mass density (323.15 K, x2 = 0.6): 1277.2 ± 2.7 kg/m3
- mass density (323.15 K, x2 = 0.7): 1307.9 ± 2.7 kg/m3
- mass density (323.15 K, x2 = 0.8): 1333.3 ± 2.8 kg/m3
- mass density (323.15 K, x2 = 0.9007): 1354.9 ± 2.8 kg/m3
- electrical conductivity (324.6 K): 2.62 ± 0.053 S/m
- viscosity (333.15 K, x2 = 0): 0.75 ± 0.05 mPa·s
- viscosity (333.15 K, x2 = 0.1009): 1.12 ± 0.07 mPa·s
- viscosity (333.15 K, x2 = 0.1987): 1.65 ± 0.1 mPa·s
- viscosity (333.15 K, x2 = 0.3002): 3.03 ± 0.19 mPa·s
- viscosity (333.15 K, x2 = 0.4): 3.85 ± 0.24 mPa·s
- viscosity (333.15 K, x2 = 0.5012): 5.43 ± 0.33 mPa·s
- viscosity (333.15 K, x2 = 0.6): 7.55 ± 0.46 mPa·s
- viscosity (333.15 K, x2 = 0.7): 10.2 ± 0.62 mPa·s
- viscosity (333.15 K, x2 = 0.8): 13.55 ± 0.83 mPa·s
- viscosity (333.15 K, x2 = 0.9): 17.71 ± 1.1 mPa·s
- mass density (333.15 K, x2 = 0): 753.5 ± 1.5 kg/m3
- mass density (333.15 K, x2 = 0.1003): 927.3 ± 3.9 kg/m3
- mass density (333.15 K, x2 = 0.1994): 1041.1 ± 3.1 kg/m3
- mass density (333.15 K, x2 = 0.3001): 1122.9 ± 2.8 kg/m3
- mass density (333.15 K, x2 = 0.4006): 1183.7 ± 2.7 kg/m3
- mass density (333.15 K, x2 = 0.4999): 1231 ± 2.7 kg/m3
- mass density (333.15 K, x2 = 0.6): 1268.3 ± 2.7 kg/m3
- mass density (333.15 K, x2 = 0.7): 1298.9 ± 2.7 kg/m3
- mass density (333.15 K, x2 = 0.8): 1324.1 ± 2.7 kg/m3
- mass density (333.15 K, x2 = 0.9007): 1345.7 ± 2.8 kg/m3
- electrical conductivity (334 K): 2.9 ± 0.059 S/m
